The values below come from patent US20230027361A1, “METTL3 MODULATORS” (priority 2019, published 2023).

What is called IC50 is the concentration at which inhibition is half-maximal.

For one assay, the target named is PRMT5-MEP50 (Homo sapiens, UniProt O14744). Nature of the assay: PRMT5 Assay (PRMT5 biochemical assay). In outline:
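PRMT5-MEP50 (2.5 nM final) preincubated 5 min with compound, then reacted 60 min at ambient temperature with 100 nM biotinylated N-acetyl histone H4 peptide and 250 nM 3H-SAM in 20 mM Tris-HCl pH 8.0, 1 mM DTT, 0.01% Tween. Quenched with 15 μM cold SAM; methylated peptide captured on streptavidin flashplates, scintillation counted.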

In another assay the target is METTL1/WDR4 (Homo sapiens, UniProt Q9UBP6). Nature of the assay: METTL1 Assay (METTL1 biochemical assay). In outline: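 Radiometric methyltransfer by METTL1/WDR4 (6.25 nM f.c., 5 min preincubation) at ambient temperature in HEPES pH 7.5, KCl, MgCl2, DTT; started with 25 nM 3′-biotinylated RNA and 60 nM 3H-SAM, run 20 min, quenched with 15 μM cold SAM. Product captured on streptavidin flashplates (2 h, 25° C), counted by scintillation.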

The next assay deals with T1, METTL16 (Homo sapiens, UniProt Q86W50).
T1 sequence (Q86W50 1-562): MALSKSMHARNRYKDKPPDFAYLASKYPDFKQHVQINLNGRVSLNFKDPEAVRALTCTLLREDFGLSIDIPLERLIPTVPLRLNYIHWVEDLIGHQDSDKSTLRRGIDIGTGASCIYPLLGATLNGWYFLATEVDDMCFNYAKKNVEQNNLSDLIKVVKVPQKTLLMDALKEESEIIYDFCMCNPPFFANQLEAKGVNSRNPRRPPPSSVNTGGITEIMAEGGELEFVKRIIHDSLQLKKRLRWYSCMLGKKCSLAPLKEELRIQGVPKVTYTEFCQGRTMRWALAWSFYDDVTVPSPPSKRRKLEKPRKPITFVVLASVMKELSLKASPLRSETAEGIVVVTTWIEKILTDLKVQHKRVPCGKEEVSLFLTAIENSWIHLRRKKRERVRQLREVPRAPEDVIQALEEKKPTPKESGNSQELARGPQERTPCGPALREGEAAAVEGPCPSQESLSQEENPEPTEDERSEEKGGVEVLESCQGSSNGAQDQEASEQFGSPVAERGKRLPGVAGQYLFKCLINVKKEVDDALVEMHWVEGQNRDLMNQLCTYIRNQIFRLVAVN
Nature of the assay: METTL16 Assay (METTL16 biochemical assay). To be noted: read-out: METTL16 IC50. In outline: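 Radiometric methyltransferase reaction at ambient temperature in 20 mM HEPES pH 7.5, 50 mM KCl, 1 mM DTT, with 100 nM enzyme preincubated 5 min with compound. It was started with 50 nM 3′-biotinylated RNA, 200 nM 3H-SAM plus 800 nM cold SAM, run 20 min, then quenched with excess cold SAM. Product was captured on streptavidin flashplates and scintillation-counted.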

The test system of assay [1] is m6A in cellular mRNA of MOLM-13 cells. Nature of the assay: m6A-mRNA LC-MS/MS Assay (m6A cellular assay). Format: cell-based. The conditions noted are these: Homo sapiens, MOLM-13, read-out: m^6A IC50. How it is done:
Cells were harvested by centrifugation followed by mRNA extraction using DIRECT Dynabeads mRNA DIRECT kit (Life Technologies). mRNA was quantified on NanoDrop spectrophotometer (Thermo Fisher Scientific) and digested into single nucleosides using Nucleoside Digestion Mix (New England Biolabs). […] Quantification is performed in comparison with the standard curve, obtained from pure nucleoside standards (Selleck Chemicals) running with the same batch of samples. Percentage m^6A in cellular mRNA is calculated as 100*(m^6A/A).

Setting [2] is: PRMT5 biochemical assay; read-out: PRMT5 IC50.
[3] abbreviates: read-out: METTL1 IC50, METTL1 biochemical assay.
[4] abbreviates: read-out: PRMT5 IC50; PRMT5 biochemical assay.

Read-outs that look alike come from different tables or passages of the source.

Chain of PRMT5-MEP50 (O14744 whole entry): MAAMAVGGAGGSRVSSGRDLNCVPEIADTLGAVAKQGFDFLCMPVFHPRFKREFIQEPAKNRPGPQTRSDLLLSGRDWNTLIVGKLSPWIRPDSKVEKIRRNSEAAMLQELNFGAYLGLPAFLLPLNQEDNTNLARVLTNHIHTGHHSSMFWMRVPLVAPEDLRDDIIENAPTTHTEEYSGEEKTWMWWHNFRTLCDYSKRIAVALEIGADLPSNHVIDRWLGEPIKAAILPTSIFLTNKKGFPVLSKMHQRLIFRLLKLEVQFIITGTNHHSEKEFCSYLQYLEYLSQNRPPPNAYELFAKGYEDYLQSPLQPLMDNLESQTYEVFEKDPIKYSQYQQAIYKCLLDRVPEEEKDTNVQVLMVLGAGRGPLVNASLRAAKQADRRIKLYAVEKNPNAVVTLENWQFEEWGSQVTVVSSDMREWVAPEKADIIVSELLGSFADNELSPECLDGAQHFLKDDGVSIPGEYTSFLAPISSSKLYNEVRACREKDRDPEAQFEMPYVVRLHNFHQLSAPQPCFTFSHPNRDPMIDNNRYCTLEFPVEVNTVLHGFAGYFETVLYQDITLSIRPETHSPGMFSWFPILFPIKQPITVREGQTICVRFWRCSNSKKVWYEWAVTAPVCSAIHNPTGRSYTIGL
Chain of PRMT5-MEP50 (Q9BQA1 whole entry partner): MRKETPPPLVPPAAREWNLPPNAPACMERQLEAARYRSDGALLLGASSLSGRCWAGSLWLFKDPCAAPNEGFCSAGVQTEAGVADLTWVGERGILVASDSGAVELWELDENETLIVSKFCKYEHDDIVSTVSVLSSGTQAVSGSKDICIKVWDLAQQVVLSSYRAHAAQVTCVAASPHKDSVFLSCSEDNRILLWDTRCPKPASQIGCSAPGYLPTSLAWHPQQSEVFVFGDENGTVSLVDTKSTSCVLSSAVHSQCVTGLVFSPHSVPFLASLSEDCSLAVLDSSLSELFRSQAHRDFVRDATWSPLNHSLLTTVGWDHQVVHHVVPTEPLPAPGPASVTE
Chain of METTL1/WDR4 (Q9UBP6 whole entry, species assumed): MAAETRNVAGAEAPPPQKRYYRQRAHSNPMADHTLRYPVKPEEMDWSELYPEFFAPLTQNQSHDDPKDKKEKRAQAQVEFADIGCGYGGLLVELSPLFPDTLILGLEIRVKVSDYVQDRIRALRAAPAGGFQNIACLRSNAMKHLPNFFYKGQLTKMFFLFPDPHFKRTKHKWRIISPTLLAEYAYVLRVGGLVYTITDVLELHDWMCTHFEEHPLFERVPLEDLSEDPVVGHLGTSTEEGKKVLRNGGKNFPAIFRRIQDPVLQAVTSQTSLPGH
Chain of METTL1/WDR4 (P57081 whole entry partner, species assumed): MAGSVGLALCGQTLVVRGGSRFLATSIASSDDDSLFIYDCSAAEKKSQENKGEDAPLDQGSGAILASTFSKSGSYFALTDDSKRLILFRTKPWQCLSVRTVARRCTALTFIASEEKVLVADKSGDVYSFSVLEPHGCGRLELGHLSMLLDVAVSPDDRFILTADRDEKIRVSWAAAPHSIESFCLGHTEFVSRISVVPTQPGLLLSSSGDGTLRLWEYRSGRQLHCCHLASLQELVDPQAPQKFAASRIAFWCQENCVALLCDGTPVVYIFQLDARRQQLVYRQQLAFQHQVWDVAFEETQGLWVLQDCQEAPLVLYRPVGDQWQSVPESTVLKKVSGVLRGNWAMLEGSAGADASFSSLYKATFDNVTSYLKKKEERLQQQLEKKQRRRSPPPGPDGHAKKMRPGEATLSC

As to `CNc1ccc2ccc(CC[C@H]3O[C@@H](n4cc(C5CCCC5)c5c(N)ncnc54)[C@H](O)[C@@H]3O)cc2n1` [I-39], the IC50 on PRMT5-MEP50 (setting [2]) was below 10 nM; on METTL1/WDR4 (setting [3]), above 1000 nM; at METTL16, above 1000 nM; in assay [1], 1000 to 10000 nM.

For the compound `CCNc1ccc2ccc(OC[C@H]3O[C@@H](n4cc(-c5cn(C)cn5)c5c(N)ncnc54)[C@@H](F)[C@@H]3O)cc2n1` [I-10], the figures for the IC50 (at PRMT5-MEP50 (setting [4]); at METTL16; in assay [1]) were 100 to 1000 nM, above 1000 nM and 1000 to 10000 nM, respectively.

With `CNc1ccc2ccc(OC[C@H]3O[C@@H](n4cc(CC5CCCC5)c5c(N)ncnc54)[C@H](O)[C@@H]3O)cc2n1` [I-23], the IC50 at PRMT5-MEP50 (setting [2]) is 10 to 100 nM; at METTL1/WDR4 (setting [3]) it was above 1000 nM; at METTL16 it was above 1000 nM; in assay [1] it was 1000 to 10000 nM.

Regarding `CNc1ccc2ccc(OC[C@H]3O[C@@H](n4cc(C5CCCC5)c5c(N)ncnc54)[C@H](O)[C@@H]3O)cc2n1` [I-33, (2R,3R,4S,5R)-2-(4-amino-5-cyclopentyl-7H-pyrrolo[2,3-d]pyrimidin-7-yl)-5-(((2-(methylamino)quinolin-7-yl)oxy)methyl)tetrahydrofuran-3,4-diol], the half-inhibitory concentration (IC50) at PRMT5-MEP50 (setting [2]) is below 10 nM; on METTL1/WDR4, above 1000 nM; at METTL16, above 1000 nM; in assay [1] it was below 1000 nM.

In the case of `Cn1ccc(-c2cn([C@@H]3O[C@H](COc4ccc5ccc(N6CCC6)nc5c4)[C@@H](O)[C@@H]3F)c3ncnc(N)c23)n1` [I-149], the IC50 on PRMT5-MEP50 (setting [4]) was above 1000 nM; at METTL1/WDR4 (METTL1 biochemical assay, read-out: METTL1 IC50) it was above 1000 nM; at METTL16 it was above 1000 nM; in assay [1] it was below 1000 nM.

For the compound `CNc1ccc2ccc(OC[C@H]3O[C@@H](n4cc(-c5ccn(C)n5)c5c(N)ncnc54)[C@@H](F)[C@@H]3O)cc2n1` [I-12], the IC50 was 10 to 100 nM on PRMT5-MEP50 (setting [4]), above 1000 nM on METTL16 and below 1000 nM in assay [1].

`CNc1ccc2ccc(OC[C@H]3O[C@@H](n4cc(Br)c5c(N)ncnc54)[C@H](O)[C@@H]3O)cc2n1` [I-73]: the IC50 on PRMT5-MEP50 (setting [2]) was below 10 nM; on METTL1/WDR4 (setting [3]), above 1000 nM; on METTL16, above 1000 nM; in assay [1], 1000 to 10000 nM.

As for `CNc1ccc2ccc(OC[C@H]3O[C@@H](n4cc(Cl)c5c(N)ncnc54)[C@H](O)[C@@H]3O)cc2n1` [I-70], the IC50 on PRMT5-MEP50 (setting [2]) is below 10 nM; at METTL1/WDR4 (setting [3]) it was above 1000 nM; at METTL16, above 1000 nM; in assay [1], 1000 to 10000 nM.

Turning to `CNc1ccc2ccc(OC[C@H]3O[C@@H](n4cc(CC5CC5)c5c(N)ncnc54)[C@@H](F)[C@@H]3O)cc2n1` [I-36], the IC50 at PRMT5-MEP50 (setting [2]) was 100 to 1000 nM; on METTL1/WDR4 (setting [3]), above 1000 nM; at METTL16, above 1000 nM; in assay [1] it was 1000 to 10000 nM.

Consider `CNc1ccc2ccc(OC[C@H]3O[C@@H](n4cc(C5CC5)c5c(N)ncnc54)[C@@H](F)[C@@H]3O)cc2n1` [I-29], for which the IC50 on PRMT5-MEP50 (setting [2]) is 100 to 1000 nM; on METTL1/WDR4 (setting [3]), above 1000 nM; at METTL16, above 1000 nM; in assay [1], 1000 to 10000 nM.
